From PubChem BioAssay AID602389 (Broad Institute, 2012)
Active and inactive are the calls of the source.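 How the source made its calls: active means growth down by 35% or more in duplicate, reached at no more than twice the top tested dose; inactive means growth raised instead, and the rest.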

test system: P. aeruginosa growth with EDDHA, OD600, 24-30 h; experiment: P. aeruginosa growth delay under iron chelation, dose response, absorbance, plate reader, cherry-picks (AID 602389); conditions: not given

Row | SMILES | AC35
1 | Cc1cccc(C(C#N)c2ccc(Cl)nn2)c1 (stereo not drawn) | > 50 µM (inactive)
2 | COC(=O)c1cc(-c2ccc(Br)cc2)on1 | 47 µM
3 | c1ccn2cc(-c3ccc4c(c3)OCCO4)nc2c1 | > 50 µM (inactive)
4 | Cc1cc(C)nc(N(C#N)Cc2ccccc2)n1 | > 50 µM (inactive)
5 | N#CC(c1ccc(Cl)cc1)c1cccc(Cl)n1 (stereo not drawn) | 41.2 µM
6 | O=C(NC1CCS(=O)(=O)C1)c1cccc(Br)c1 (stereo not drawn) | > 50 µM (inactive)
7 | Cc1cc(NC(=O)Nc2ccccc2[N+](=O)[O-])no1 | > 50 µM (inactive)

test system: not listed separately; experiment: as above; conditions: P. aeruginosa growth with EDDHA, OD600, 24-30 h; at 50 µM (top of the series)

Row | SMILES | growth change, negative = inhibition
8 | CSC1=N/C(=C\C=C\c2cccs2)C(=O)S1 | 13.6% (inactive)
9 | CCOC(=O)CCCn1ncn2c(cc3occc32)c1=O | -2.87% (inactive)
10 | N#CC(c1ccc(Cl)nn1)c1ccccc1Cl (stereo not drawn) | -4.43% (inactive)
11 | CCCCCC1CC(COc2ccccc2)OC1=O (stereo not drawn) | -10.5% (inactive)
12 | CSc1nnc(-c2ccc([N+](=O)[O-])cc2)o1 | -9.96% (inactive)
13 | O=S1(=O)CCOC[C@H](c2ccccc2)N1Cc1cccc(Cl)c1 | 7.06% (inactive)
14 | Cc1cc(C)nc(N(C#N)Cc2cccc([N+](=O)[O-])c2)n1 | 12.9% (inactive)
15 | CCOc1ccc(-n2cccc2C=O)cc1 | 1.21% (inactive)
16 | O=C1N[C@@H](Cc2ccccc2)[C@@H](c2ccco2)O1 | 16.2% (inactive)
17 | O=C(NC1CCCC1)c1cc(Cl)ccc1[N+](=O)[O-] | 7.04% (inactive)
18 | O=C(NC1CCCC1)c1cccc(Cl)c1 | 7.87% (inactive)
19 | O=C(NCC1CC1)c1cc([N+](=O)[O-])cc([N+](=O)[O-])c1 | 7.47% (inactive)
20 | Cc1cc(NC(=O)c2cc([N+](=O)[O-])cc([N+](=O)[O-])c2C)no1 | 5.73% (inactive)
21 | COc1ccc(-c2cc3ncccc3cn2)cc1 | 7% (inactive)
22 | N#C/C(=C/c1ccco1)c1nc2ccccc2s1 | 18.7% (inactive)
23 | N#Cc1cc([N+](=O)[O-])ccc1N1CCCC1 | -11.4% (inactive)
24 | CCOC(=O)c1cc2c(s1)-c1c(C)cccc1OC2 | 6.54% (inactive)
25 | Cc1cc(S(=O)(=O)NCC2CC2)c(Cl)cc1Cl | 9.74% (inactive)
26 | COC(=O)c1ccc(/C=C(\C#N)c2ccccn2)cc1 | 9.37% (inactive)
27 | CC(C)CCNC(=O)c1cccc(Cl)c1 | -12.3% (inactive)
28 | CCOC(=O)c1ccc(-c2ccc(C=O)o2)cc1 | 7.58% (inactive)
29 | O=C1C=C(c2cccc(Cl)c2)C[C@@H](c2ccc(F)cc2)C1 | 17.4% (inactive)
30 | Cc1cccc(NC(=O)Nc2cc(C)on2)c1 | 2.69% (inactive)

Row | SMILES | growth change, negative = inhibition
31 | CCOC(=O)CC(C#N)c1cn(C)c2ccccc12 (stereo not drawn) | -0.14% (inactive)
32 | O=[N+]([O-])c1ccc(N2CCCCC2)nc1 | -2.09% (inactive)
33 | O=[N+]([O-])c1ccc(N2CCCC2)nc1 | 9.43% (inactive)
34 | N#CC(c1ccc(Cl)cc1)c1ncc(C(F)(F)F)cc1Cl (stereo not drawn) | -14% (inactive)
35 | O=C(Nc1ncc([N+](=O)[O-])s1)c1cccc([N+](=O)[O-])c1 | -9.89% (inactive)
36 | COC(=O)c1ccc(OC(=O)c2ccco2)cc1 | -12.9% (inactive)
37 | Cc1ccc2nc(-c3ccc4c(c3)OCCO4)cn2c1 | 3.5% (inactive)
38 | O=C(NC1CCCCCCC1)c1cccc(Cl)c1 | -14.2% (inactive)
39 | Cc1ccc(S(=O)c2ccc(C)cc2)cc1 | 0.078% (inactive)
40 | O=CN(c1ccccc1)c1ccc2ccccc2c1 | -5.6% (inactive)
41 | N#CC(c1ccc(Cl)cc1)c1ccc(Cl)nn1 (stereo not drawn) | -4.67% (inactive)
42 | CC(C)N=C(NC#N)SCc1ccccc1F | -1.36% (inactive)
43 | O=C1C2C(C(=O)N1Cc1ccco1)C1C=CC2C12CC2 (stereo not drawn) | 2.46% (inactive)
44 | Cc1cccc(NC(=O)c2ccc3c(c2)OCCO3)n1 | 2.6% (inactive)
45 | N#CC(c1cccc(Cl)c1)c1ncc(C(F)(F)F)cc1Cl (stereo not drawn) | 1.76% (inactive)
46 | COc1ccc(N2CCN(C(=O)c3ccc(Br)o3)CC2)cc1 | -4.3% (inactive)
47 | COC(=O)c1ccc(NC(=S)N2CCCC2)cc1 | 12% (inactive)
48 | CCC(C)NS(=O)(=O)c1ccc(OC)c(Cl)c1Cl (stereo not drawn) | -10.7% (inactive)
49 | COc1ccc(C(C#N)c2ccc(Cl)nn2)cc1 (stereo not drawn) | -3.93% (inactive)
50 | Clc1ccc2scc(CN3CCCCC3)c2c1 | -3.92% (inactive)
51 | O=C1C2C3C=CC(C4CC34)C2C(=O)N1Cc1ccco1 (stereo not drawn) | 43.3% (inactive)
52 | Cn1cccc1C(=O)OCc1cc(-c2ccco2)on1 | 6.86% (inactive)
53 | CCOC(=O)/C=C(\C)Sc1cc(=O)oc2ccccc12 | 19.4% (inactive)

Row | SMILES | growth change, negative = inhibition
54 | Clc1ccc2scc(CN3CCCC3)c2c1 | -1.16% (inactive)
55 | OC(c1cccc(Cl)c1)c1nccc2ccccc12 (stereo not drawn) | -6.69% (inactive)
56 | CCOc1ccc(CNC2CCCc3ccccc32)cc1 (stereo not drawn) | 20.8% (inactive)
57 | CCNC(=O)COc1ccc2ccccc2c1 | 3.07% (inactive)
58 | CC(C)(C)NC(=O)c1cc(Cl)ccc1[N+](=O)[O-] | 12.1% (inactive)
59 | O=C(c1cccc([N+](=O)[O-])c1)N1CC2C3C=CC(C3)C2C1 (stereo not drawn) | 5.48% (inactive)
60 | CCOC1=CC(=O)OC(c2ccccc2)C1 (stereo not drawn) | 3.24% (inactive)
61 | Cc1ccc2scc(CN3CCCC3)c2c1 | -6.73% (inactive)
62 | N#CCn1c(C2CCCCC2)nc2ccccc2c1=O | 17.3% (inactive)
63 | Cc1ccc(S(=O)(=O)NCCC(C)C)cc1[N+](=O)[O-] | 1.56% (inactive)
64 | O=CC1=C(c2ccccc2)Oc2ccccc2O1 | -4.48% (inactive)
65 | COc1ccccc1C(C#N)c1cccc(Cl)n1 (stereo not drawn) | 5.02% (inactive)
66 | N#CC(Sc1ccccn1)c1ccc(Cl)cc1 (stereo not drawn) | 15.4% (inactive)
67 | O=C(/C=C/c1cccs1)c1cc(Cl)ccc1O | 18.9% (inactive)
68 | O=C1C=C(c2cc(F)ccc2F)C[C@@H](c2ccc(F)cc2)C1 | -1.93% (inactive)
69 | CO/N=C/c1cn(-c2ccc(Cl)cc2)nn1 | -0.342% (inactive)
70 | Cc1ccc(C)c(S(=O)(=O)NC2CCSC2=O)c1 (stereo not drawn) | -4.84% (inactive)
71 | COc1ccc(/C(C#N)=C/c2cccnc2)cc1 | -1.53% (inactive)
72 | CN(Cc1ccccc1)c1ncnc2ccc(Br)cc12 | 9.04% (inactive)
73 | Cc1ccc(O)c(C(=O)/C=C/c2ccc3c(c2)OCCO3)c1 | 19.8% (inactive)
74 | Cc1cc(NC(=O)c2cc([N+](=O)[O-])ccc2Cl)no1 | 24.8% (inactive)
75 | COc1ccc(CNCc2cccc(Cl)c2)cc1 | 4.12% (inactive)
76 | Clc1cccc(CNCCCSc2ncccn2)c1 | -7.39% (inactive)

Row | SMILES | growth change, negative = inhibition
77 | CCCNS(=O)(=O)c1ccc(OC)c(Cl)c1Cl | -7.21% (inactive)
78 | N#CC(c1ccc(Cl)nn1)c1ccc(Cl)cc1Cl (stereo not drawn) | -0.745% (inactive)
79 | COC(=O)c1cc(-c2ccc(OC)cc2)on1 | -7.05% (inactive)
80 | N#CC(c1ccc(Cl)nn1)c1c(F)cccc1Cl (stereo not drawn) | 15% (inactive)
81 | COC(=O)c1ccc(OC(=O)c2cccs2)cc1 | 6.21% (inactive)
82 | Cn1cccc1C(C#N)c1cccc(F)c1C#N (stereo not drawn) | 7.38% (inactive)
83 | CCOC(=O)c1cnc(-c2ccccc2)nc1N | -4.77% (inactive)
84 | N#CC1C(C#N)C2CCC1C1C2N1c1ccccc1 (stereo not drawn) | -7.23% (inactive)
85 | CCOC(=O)N1CCN(c2ccc(Cl)cc2)CC1 | -0.021% (inactive)
86 | COc1ccc(N=C(C)C2=C(O)CSC2=O)cc1 | 15.6% (inactive)
87 | O=CNC1(c2ccccc2)CCCCC1 | -5.85% (inactive)
88 | Cn1cccc1C(C#N)c1ccccc1C#N (stereo not drawn) | 9.31% (inactive)
89 | CCOC(=O)c1ccc(-c2ccc(CO)o2)cc1 | -6.54% (inactive)
90 | O=[N+]([O-])c1ccc(N2CCCCC2)cc1 | 8.85% (inactive)
91 | O=C(NC1CCSC1)c1cccc(Cl)c1 (stereo not drawn) | 2.12% (inactive)
92 | COc1ccc(/C=C/C(=O)c2ccoc2)cc1 | 4.86% (inactive)
93 | CCOC(=O)c1ccc(N2Cc3ccccc3C2=N)cc1 | -6.69% (inactive)
94 | N#CC(c1ccccc1)c1cccc(Cl)n1 (stereo not drawn) | -11.7% (inactive)
95 | O=[N+]([O-])c1ccc(-c2cccnc2)cc1 | -3.69% (inactive)
96 | Cc1cc(NC(=O)c2c(F)c(F)c(F)c(F)c2F)no1 | 14.5% (inactive)
97 | Nc1ccc(OCc2ccccc2)cc1[N+](=O)[O-] | 3.9% (inactive)
98 | Cc1ccc(C(C#N)c2ccc(Cl)nn2)cc1 (stereo not drawn) | -0.103% (inactive)
